Results filed as inconclusive are left out.
These molecules were tested on U2OS PGC1a acetylation AlphaLISA, overnight (assay: PGC1a acetylation increase, cellular AlphaLISA – cell-based, cherry-picked samples, set 6, dose response (AID 720513);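 also: cells made to overexpress flag tagged PGC1a plus GCN5 acetyltransferase by viral infection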).

First: O=C(COc1ccc([N+](=O)[O-])cc1)Nc1ccc(C(=O)NCc2cccnc2)cc1
Second: O=C(Cc1ccc(Cl)cc1)c1c[nH]c(C(=O)NCc2cccnc2)c1
The AC40 of the first is 13-fold lower: 0.283 µM for the first, 3.56 µM for the second.

First: Nc1c(C(=O)Nc2ccccc2)c2nc3ccccc3nc2n1CCCN1CCOCC1
Second: COCCCn1c(N)c(C(=O)Nc2ccccc2)c2nc3ccccc3nc21
The AC40 of the first is 4.1-fold higher: 4.85 µM for the first, 1.18 µM for the second.

Going from Cc1ccc(CC(=O)N2CCN(c3ccc([N+](=O)[O-])cc3)CC2)cc1 to O=C(C(Cc1ccccc1)n1cccc1)N1CCN(c2ccccc2)CC1 (stereo not given), the AC40 rises from 0.312 µM to 7.54 µM (24-fold).

Going from COc1cc(CNC(=O)c2cc(-c3cc(C)cc(F)c3)n[nH]2)cc(OC)c1 to CCC(CC)C(=O)c1c[nH]c(C(=O)NCc2ccccc2)c1, the AC40 falls from 15.8 µM to 0.689 µM (23-fold).

Compared with COc1ccc(C2N(S(=O)(=O)c3ccccc3)CCN2S(=O)(=O)c2ccc(C)cc2)cc1 (stereo not given), CCOC(=O)C1=CC[C@@H](c2ccc(OC)cc2)N(S(=O)(=O)c2ccc(C)cc2)[C@H]1CC is 2-fold lower in AC40: 6.61 µM for the first, 3.36 µM for the second.

Compared with CCOC(=O)c1sc2nc(C)nc(NCc3ccccc3OC)c2c1C, CCOC(=O)C1=CC[C@@H](c2ccccc2)N(S(=O)(=O)c2ccc(C)cc2)[C@H]1c1cccc(OC)c1 is 3.1-fold higher in AC40: 3.12 µM for the first, 9.62 µM for the second.

Compared with c1ccc(-c2c(-c3ccccc3)n(Cc3ccco3)c3ncnc(NCCCn4ccnc4)c23)cc1, CCN(CC)CCOc1ccc(/C(=C(\Cl)c2ccccc2)c2ccccc2)cc1 is 1.6-fold higher in AC40: 1.86 µM for the first, 3.01 µM for the second.

First: COc1ccc(N(C(=O)c2csnn2)C(C(=O)NC2CCCC2)c2cccs2)cc1 (stereo not given)
Second: Cc1ccc(Cl)cc1NC(=O)Cn1nc(-c2cccs2)ccc1=O
The AC40 of the first is 1.6-fold lower: 2.62 µM for the first, 4.08 µM for the second.

First: O=C1C=C(c2cc3ccccc3s2)CCC1
Second: CC(C)(C)C(=O)Nc1sc2c(c1-c1nc3ccccc3[nH]1)CCCC2
The AC40 of the first is 4.9-fold lower: 3.77 µM for the first, 18.4 µM for the second.

Going from Cc1ccccc1-c1ccc(C2[C@@H]3CN(S(=O)(=O)c4ccccc4C)C[C@H]2N3)cc1 (stereo not given in full) to Cc1ccc(S(=O)(=O)N2C[C@@H]3N[C@H](C2)[C@@H]3c2ccc(-c3cccc(C)c3)cc2)cc1, the AC40 falls from 12.9 µM to 5.18 µM (2.5-fold).

Compared with COc1ccc(S(=O)(=O)N(C)CC(=O)Nc2cccc(C(C)=O)c2)cc1Cl, Cc1ccc(NC(=O)CN(C)S(=O)(=O)c2cccs2)c(Br)c1 is 1.6-fold higher in AC40: 9.1 µM for the first, 14.7 µM for the second.

Compared with COc1cccc(CN2C[C@@H]3N[C@H](C2)C3c2ccc(-c3ccccc3F)cc2)c1 (stereo not given in full), COc1ccc(OC(=O)N(C)C[C@H]2OCc3ccccc3-c3c(n(C)c4ccccc34)C(=O)N([C@@H](C)CO)C[C@H]2C)cc1 is 2.4-fold lower in AC40: 16.3 µM for the first, 6.72 µM for the second.

Going from O=C1NCN(c2ccccc2)C12CCN(C(c1cc3ccccc3o1)c1nnnn1C1CCCCC1)CC2 (stereo not given) to O=C(NCCCN1CCOCC1)c1ccccc1N1C(=O)[C@@H]2Cc3c([nH]c4ccccc34)C(c3ccccc3)N2C1=O (stereo not given in full), the AC40 rises from 1.78 µM to 6.79 µM (3.8-fold).

First: CCOC(=O)c1ccc(NC(=O)Nc2ccc(F)cc2)cc1
Second: CC(=O)c1ccc(NC(=O)N2CCc3ccccc3C2)cc1
The AC40 of the first is 39-fold higher: 16.2 µM for the first, 0.412 µM for the second.

Compared with O=C(C[C@H]1CC[C@H]2[C@@H](COC[C@@H](O)CN2C(=O)c2cc(Cl)cc(Cl)c2)O1)N1CCc2ccccc2C1, N#Cc1ccccc1S(=O)(=O)N1CCN(Cc2cc3c(cc2Br)OCCO3)CC1 is 9.8-fold lower in AC40: 9.14 µM for the first, 0.934 µM for the second.

Compared with COC(=O)C(Nc1ccccc1Cl)(c1cc(C)c(O)c(C)c1)C(F)(F)F (stereo not given), O=C(Nc1cccc(C(F)(F)F)c1)c1sc(Cl)nc1C(F)(F)F is 4.7-fold higher in AC40: 0.641 µM for the first, 3.01 µM for the second.

Compared with Cc1csc(NC(=O)CSc2nsc(SCC(=O)Nc3nc(C)cs3)c2C#N)n1, Cc1ccc(O)c(C(=O)c2cnc3c(c2)CN(CCC(C)C)C(=O)N3)c1 is 2.3-fold higher in AC40: 4.36 µM for the first, 10.2 µM for the second.

Going from NC(=O)Cn1cc(C(=O)c2cccs2)c2ccccc21 to Cc1ccc(-n2cccn2)c(CN2CCCC(C(=O)c3sccc3C)C2)c1 (stereo not given), the AC40 rises from 3.92 µM to 9.08 µM (2.3-fold).

Cc1cc2oc(=O)cc(CN3CCC(C)CC3)c2cc1C and Cc1cc(N2CCC(C(N)=O)CC2)nc(-c2ccccc2)n1 are within 1.5-fold of each other in AC40: 5.71 µM for the first, 3.95 µM for the second.

COc1ccc(S(=O)(=O)N(C)C[C@@H]2Oc3cc(C#CC4CC4)ccc3S(=O)(=O)N([C@H](C)CO)C[C@@H]2C)cc1 and Cc1ccccc1-c1ccc2c(c1)O[C@H](CN(C)Cc1ccncc1)[C@@H](C)CN([C@@H](C)CO)S2(=O)=O are within 1.5-fold of each other in AC40: 18 µM for the first, 14.9 µM for the second.

Going from O=C(CCc1nc2ccccc2c(=O)[nH]1)Nc1ccc(N2CCCCC2)cc1 to C=CCn1c(=NC(=O)c2ccc(S(=O)(=O)N3CCCC3)cc2)sc2cc(NC(C)=O)ccc21, the AC40 rises from 4.4 µM to 12.3 µM (2.8-fold).

Going from CCN1CCN(C(=O)c2ccc3c(=O)n(CCC4=CCCCC4)c(=O)[nH]c3c2)CC1 to CCN1CCN(c2ncc(C(=O)Nc3cc(Cl)ccc3OC)c3ccccc23)CC1, the AC40 rises from 1.94 µM to 5.32 µM (2.7-fold).

Compared with CCOC(=O)CC(S(=O)(=O)c1ccccc1)S(=O)(=O)c1ccccc1, COC(=O)[C@H](Cc1ccccc1)N(C)S(=O)(=O)c1cccc(S(=O)(=O)N(C)[C@@H](Cc2ccccc2)C(=O)OC)c1 is 2.4-fold higher in AC40: 4.09 µM for the first, 9.66 µM for the second.

O=c1[nH]nc(SCCS(=O)(=O)c2ccc(F)cc2)n1-c1ccccc1 and CCN(CC)CCNC(=O)c1ccc2c(c1NCCO)C(=O)c1ccccc1C2=O are within 1.5-fold of each other in AC40: 15.2 µM for the first, 14.6 µM for the second.

COc1ccc(S(=O)(=O)Nc2ccc3c(c2)C(=O)N([C@@H](C)CO)C[C@@H](C)[C@H](CN(C)S(=O)(=O)c2ccc(Cl)cc2)OCCCC[C@H](C)O3)cc1 and COc1cccc(C(=O)/C=C/c2ccc(OCC#N)c(OC)c2)c1 are within 1.5-fold of each other in AC40: 9.66 µM for the first, 6.74 µM for the second.
